Experimental data as given in a melting point compilation (Tetko et al.; mined from patent text by program, amines drawn as free bases though some values may be those of a salt).

Structure (SMILES)	melting point [°C]
CC(C)(C)c1cc(CCc2ccccc2NC(=O)NC2CCN(Cc3ccccc3F)CC2)cc(C(C)(C)C)c1O	136 to 137
CCN(CC)S(=O)(=O)c1cc(-n2c(=O)cc(C(F)(F)F)n(C)c2=O)c(F)cc1Cl	190 to 191
Cc1cccc(Nc2cc(Nc3cccc(OCC(=O)N(CCO)CCO)c3)ncn2)c1	112 to 113
CC(C)[C@H](C[C@H](O)[C@H](C)NC(=O)OC(C)(C)C)C(=O)NCCCn1ccnc1	148 to 150
C=CC(=O)O[C@H]1CC[C@H](c2cccc(F)c2F)CC1	72.9 to 73.6
CCOC(=O)CCN1CCN(C2=Nc3ccccc3Sc3ccc(Cl)cc32)CC1	79 to 80
COC(=O)CCc1cc2nc(Cl)ccc2n1S(=O)(=O)c1ccc2c(c1)CCN2C(C)=O	66
COc1ccc(-c2nc(N3CCOCC3)c3sc(NS(=O)(=O)c4cccc(/C=C/C(=O)NO)c4)cc3n2)cn1	> 300
COc1ccc(C=CC(=O)N[C@@H](Cc2ccccc2)C(=O)CSCc2ccsc2)c(OC)c1	142 to 143
COc1ccc(-c2cc(COS(C)(=O)=O)c(=O)n(Cc3ccc(F)cc3)n2)cc1F	125 to 133
COc1ccc(-c2cc(=O)n(CC(C)C)nc2-c2ccc(OC)c(F)c2)cc1	86.8 to 87.4
CC(C)(C)c1cc2c(c(-c3nc4ccc(S(=O)(=O)C(F)(F)F)cc4c(=O)[nH]3)c1O)CCO2	235 to 237
CCc1cccc(C)c1N1C(=O)C=CC1=O	84.5 to 85
O=S(=O)(CCCCl)Nc1ccccc1OCc1ccc2ccccc2n1	100 to 101
CC1(C)c2cc(OS(C)(=O)=O)ccc2OC1OC(=O)c1ccccc1 (stereo unspecified)	102 to 104
CCCCOCCOc1ccc(-c2ccc3c(c2)C=C(C(=O)Nc2ccc(S(=O)Cc4nccn4CCCC(=O)OCC)cc2)CCN3CC(C)C)cc1 (stereo unspecified)	134 to 136
CC(C)C(NC(=O)c1ccc(C(=O)NCc2ccc(N)cc2)cc1)C(=O)N1CCCC1C(=O)NC(C(=O)C(F)(F)F)C(C)C (mixture of isomers)	90 to 92
NC(=O)N(O)Cc1sccc1Oc1ccccc1	132 to 134

Structure (SMILES)	melting point [°C]
Oc1c2c(nn1-c1ccccn1)CCc1cc(-c3ccccc3)ccc1-2	133 to 134
CN(C)C=C1CCc2ccn(C)c2C1=O	49 to 51
CCCCN1CC=C(c2cccc3c2CC(=O)N3)CC1	110 to 111
CC(C)(C)c1ccc(/C=C/C(=O)OCc2ccccc2)cc1	59 to 62
CCCCCCCCCc1ccc(-c2ccc(OCC(OC3CCCCO3)C(F)(F)F)nn2)cc1 (stereo unspecified)	96.1
CCCCCCCCCCCc1cc2ccc(C(=O)OCCCC)cc2[nH]1	73 to 76
OC(CS)(Cn1cncn1)c1ccc(Cl)cc1Cl (stereo unspecified)	139 to 142
CCCn1c(=O)c2nc(C(C)Cc3ccc(OCC(=O)O)cc3)[nH]c2n(CCC)c1=O (stereo unspecified)	168 to 170
Cc1cc(-n2cc(-c3ccc(F)cc3F)nc2C)cc2ccc(=O)[nH]c12	262 to 265
Cn1ccc2c1CCN1C(=O)CCC21 (stereo unspecified)	122 to 125
CCOc1ccc2c(C)c(CCCl)c(=O)oc2c1OCC	89 to 90
NC(=O)c1ncn2c1CN=C(c1ccccc1Br)c1cc(F)ccc1-2	298 to 299
Cc1cc2c(s1)Oc1ccc(Cl)cc1NC2=O	250 to 253
O=C(NC1CN2CCC1CC2)c1cccc2nc(-c3ccc(F)cc3)oc12 (stereo unspecified)	185 to 187
CC(c1cc2ncnc(Cl)c2[nH]1)c1oc2ccccc2c(=O)c1-c1cccc(F)c1 (stereo unspecified)	166 to 168
CCCCC1(Cc2c(F)cccc2Cl)NC=C(C=O)N1 (stereo unspecified)	88 to 90
CCc1nc(OC)c(NC(=O)N2CCN(c3cccc(F)c3)CC2)cc1C(=O)NC(C)C(=O)Nc1cc(CO)cc(Nc2c3ccccc3nc3ccccc23)c1 (stereo unspecified)	208 to 210
COc1cc(OC)c2c(=O)cc(-c3nc4ccccc4[nH]3)oc2c1	245 to 246
